Data from ChEMBL document CHEMBL1156232, “Non-classical antifolates. Part 2: synthesis, biological evaluation, and molecular modeling study of some new 2,6-substituted-quinazolin-4-ones” (Bioorg Med Chem, 2010).
Converted amounts (≈) assume the structure as drawn. The source made the active and inactive calls. The calls are words filed in the database; no cut-off is given here.

Assays:
Escherichia coli [1] = assay: Antibacterial activity against Escherichia coli after 24 hrs by microdilution susceptibility method; assay type: functional
Bacillus subtilis [2] = assay: Antibacterial activity against Bacillus subtilis after 24 hrs by microdilution susceptibility method; assay type: functional
Dihydrofolate reductase [3] = target: T1, Dihydrofolate reductase (Homo sapiens, UniProt P00374)
T1 sequence (P00374 whole entry): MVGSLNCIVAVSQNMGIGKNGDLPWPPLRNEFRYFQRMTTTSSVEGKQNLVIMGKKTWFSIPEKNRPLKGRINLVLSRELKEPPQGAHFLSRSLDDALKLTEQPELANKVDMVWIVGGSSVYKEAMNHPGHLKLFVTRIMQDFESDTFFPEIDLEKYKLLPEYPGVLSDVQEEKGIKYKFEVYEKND
Description: Inhibition of human DHFR after 2 mins

Staphylococcus aureus [4] = assay: Antibacterial activity against Staphylococcus aureus after 24 hrs by microdilution susceptibility method; assay type: functional
Micrococcus luteus [5] = assay: Antibacterial activity against Micrococcus luteus at 200 ug/disk after 24 hrs by disk diffusion method; assay type: functional; conditions: for zone of inhibition at 200 µg/disc: Micrococcus luteus, 24 h, read-out: DIZ
Candida albicans [6] = assay: Antifungal activity against Candida albicans at 200 ug/disk after 48 hrs by disk diffusion method; assay type: functional, organism-based
Micrococcus luteus [7] = assay: Antibacterial activity against Micrococcus luteus after 24 hrs by microdilution susceptibility method; assay type: functional
Dihydrofolate reductase [8] = target: T2, Dihydrofolate reductase (Bos taurus, UniProt P00376)
T2 sequence (P00376 whole entry): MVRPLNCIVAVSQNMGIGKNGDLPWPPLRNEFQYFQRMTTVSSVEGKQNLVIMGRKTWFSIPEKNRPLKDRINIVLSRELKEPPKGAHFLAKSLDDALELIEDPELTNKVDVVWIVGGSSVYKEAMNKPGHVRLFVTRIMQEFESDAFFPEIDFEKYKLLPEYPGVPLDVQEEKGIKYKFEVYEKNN
Description: Inhibition of bovine DHFR after 2 mins

Bacillus subtilis [9] = assay: Antibacterial activity against Bacillus subtilis at 200 ug/disk after 24 hrs by disk diffusion method; assay type: functional; conditions: for zone of inhibition at 200 µg/disc: read-out: DIZ
Staphylococcus aureus [10] = assay: Antibacterial activity against Staphylococcus aureus at 200 ug/disk after 24 hrs by disk diffusion method; assay type: functional; conditions: for zone of inhibition at 200 µg/disc: read-out: DIZ
Escherichia coli [11] = assay: Antibacterial activity against Escherichia coli at 200 ug/disk after 24 hrs by disk diffusion method; assay type: functional; conditions: for zone of inhibition at 200 µg/disc: read-out: DIZ
Pseudomonas aeruginosa [12] = assay: Antibacterial activity against Pseudomonas aeruginosa at 200 ug/disk after 24 hrs by disk diffusion method; assay type: functional
Candida albicans [13] = assay: Antifungal activity against Candida albicans after 48 hrs by microdilution susceptibility method; assay type: functional, organism-based
HT-29 = assay: Antitumor activity against human HT-29 cells after 48 hrs by SRB assay; assay type: functional; conditions: HT-29, 48 h
[14] = Antitumor activity against human leukemia cells after 48 hrs by SRB assay; assay type: functional; conditions: Leukemia cell
[15] = Antitumor activity against human renal cancer cells after 48 hrs by SRB assay; assay type: functional; conditions: Cancer cell lines
[16] = Antitumor activity against human melanoma cells after 48 hrs by SRB assay; assay type: functional; conditions: Melanoma cell
OVCAR-4 = assay: Antitumor activity against human OVCAR4 cells after 48 hrs by SRB assay; assay type: functional; conditions: OVCAR-4, 48 h
[17] = Antitumor activity against human prostate cancer cells after 48 hrs by SRB assay; assay type: functional; conditions: Cancer cell lines
[18] = Antitumor activity against human ovarian cancer cells after 48 hrs by SRB assay; assay type: functional; conditions: Cancer cell lines
[19] = Antitumor activity against human colon cancer cells after 48 hrs by SRB assay; assay type: functional; conditions: Cancer cell lines
[20] = Antitumor activity against human non small cell lung cancer cells after 48 hrs by SRB assay; assay type: functional; conditions: Cancer cell lines
[21] = Antitumor activity against human CNS cancer cells after 48 hrs by SRB assay; assay type: functional; conditions: Cancer cell lines
[22] = Antitumor activity against human breast cancer cells after 48 hrs by SRB assay; assay type: functional; conditions: Cancer cell lines
Pseudomonas aeruginosa [23] = assay: Antibacterial activity against Pseudomonas aeruginosa after 24 hrs by microdilution susceptibility method; assay type: functional
MDA-MB-468 = assay: Antitumor activity against human MDA-MB-468 cells after 48 hrs by SRB assay; assay type: functional; conditions: MDA-MB-468, 48 h
Bacillus subtilis [24] = assay: Antibacterial activity against Bacillus subtilis at 100 ug/disk after 24 hrs by disk diffusion method; assay type: functional
Staphylococcus aureus [25] = assay: Antibacterial activity against Staphylococcus aureus at 100 ug/disk after 24 hrs by disk diffusion method; assay type: functional

Molecule: C=CCSc1nc2ccc(NC(=O)/C=C/c3ccccc3)cc2c(=O)n1Cc1ccccc1
- MIC (Escherichia coli [1]): 8 µg/mL (≈ 17.6 µM)
- MIC (Bacillus subtilis [2]): 8 µg/mL (≈ 17.6 µM)
- IC50 (Dihydrofolate reductase [3]): 0.5 µM
- MIC (Staphylococcus aureus [4]): 8 µg/mL (≈ 17.6 µM)
- diameter of the inhibition zone (DIZ) (Micrococcus luteus [5]): 18 mm
- Activity (Candida albicans [6]): inactive
- MIC (Micrococcus luteus [7]): 8 µg/mL (≈ 17.6 µM)
- IC50 (Dihydrofolate reductase [8]): 0.7 µM
- zone of inhibition at 200 µg/disc (Bacillus subtilis [9]): 18 mm
- zone of inhibition at 200 µg/disc (Staphylococcus aureus [10]): 16 mm
- zone of inhibition at 200 µg/disc (Escherichia coli [11]): 18 mm
- diameter of the inhibition zone (DIZ) (Pseudomonas aeruginosa [12]): inactive
- Activity (Candida albicans [13]): inactive

Molecule: O=C(/C=C/c1ccccc1)Nc1ccc2nc(SC/C=C/c3ccccc3)n(Cc3ccccc3)c(=O)c2c1
- GI50 (HT-29): 0.6 µM
- GI50 [14]: > 100 µM
- TGI [14]: > 100 µM
- GI50 [15]: 2.6 µM
- TGI [15]: 68 µM
- IC50 (Dihydrofolate reductase [3]): 0.5 µM
- GI50 [16]: 2.2 µM
- TGI [16]: 86.9 µM
- Activity (Candida albicans [6]): inactive
- IC50 (Dihydrofolate reductase [8]): 0.9 µM
- GI50 (OVCAR-4): 0.4 µM
- GI50 [17]: > 100 µM
- TGI [17]: > 100 µM
- GI50 [18]: 3.3 µM
- TGI [18]: > 100 µM
- GI50 [19]: 1.9 µM
- TGI [19]: > 100 µM
- GI50 [20]: 2.2 µM
- TGI [20]: 76.4 µM
- GI50 [21]: 3 µM
- TGI [21]: 37 µM
- GI50 [22]: 2.5 µM
- TGI [22]: 68.6 µM
- Activity (Candida albicans [13]): inactive

Molecule: O=c1c2cc([N+](=O)[O-])ccc2nc(S)n1Cc1ccccc1
- MIC (Bacillus subtilis [2]): 8 µg/mL (≈ 25.5 µM)
- MIC (Staphylococcus aureus [4]): 4 µg/mL (≈ 12.8 µM)
- zone of inhibition at 200 µg/disc (Micrococcus luteus [5]): 16 mm
- Activity (Candida albicans [6]): inactive
- MIC (Micrococcus luteus [7]): 16 µg/mL (≈ 51.1 µM)
- IC50 (Dihydrofolate reductase [8]): 15 µM
- zone of inhibition at 200 µg/disc (Bacillus subtilis [9]): 18 mm
- zone of inhibition at 200 µg/disc (Staphylococcus aureus [10]): 20 mm
- diameter of the inhibition zone (DIZ) (Escherichia coli [11]): inactive
- diameter of the inhibition zone (DIZ) (Pseudomonas aeruginosa [12]): inactive
- Activity (Candida albicans [13]): inactive

Molecule: O=c1c2cc([N+](=O)[O-])ccc2nc(SC/C=C/c2ccccc2)n1Cc1ccccc1
- IC50 (Dihydrofolate reductase [3]): 3 µM
- diameter of the inhibition zone (DIZ) (Micrococcus luteus [5]): inactive
- Activity (Candida albicans [6]): inactive
- MIC (Pseudomonas aeruginosa [23]): 16 µg/mL (≈ 37.3 µM)
- IC50 (Dihydrofolate reductase [8]): 5 µM
- diameter of the inhibition zone (DIZ) (Bacillus subtilis [9]): inactive
- diameter of the inhibition zone (DIZ) (Staphylococcus aureus [10]): inactive
- zone of inhibition at 200 µg/disc (Escherichia coli [11]): 21 mm
- zone of inhibition at 200 µg/disc (Pseudomonas aeruginosa [12]; read-out: DIZ): 17 mm
- Activity (Candida albicans [13]): inactive

Molecule: CSc1nc2ccc(NC(=O)/C=C/c3ccccc3)cc2c(=O)n1Cc1ccccc1
- GI50 [14]: 51.6 µM
- TGI [14]: > 100 µM
- GI50 [15]: 2.9 µM
- TGI [15]: > 100 µM
- IC50 (Dihydrofolate reductase [3]): 1 µM
- GI50 [16]: 2.4 µM
- TGI [16]: 26.9 µM
- diameter of the inhibition zone (DIZ) (Micrococcus luteus [5]): inactive
- Activity (Candida albicans [6]): inactive
- IC50 (Dihydrofolate reductase [8]): 0.6 µM
- diameter of the inhibition zone (DIZ) (Bacillus subtilis [9]): inactive
- diameter of the inhibition zone (DIZ) (Staphylococcus aureus [10]): inactive
- diameter of the inhibition zone (DIZ) (Escherichia coli [11]): inactive
- diameter of the inhibition zone (DIZ) (Pseudomonas aeruginosa [12]): inactive
- GI50 [17]: 1.6 µM
- TGI [17]: > 100 µM
- GI50 [18]: 1.1 µM
- TGI [18]: > 100 µM
- GI50 [19]: 34.5 µM
- TGI [19]: > 100 µM
- GI50 [20]: 1.7 µM
- TGI [20]: 80.9 µM
- GI50 (MDA-MB-468): 2.2 µM
- GI50 [21]: 1.9 µM
- TGI [21]: 68.4 µM
- GI50 [22]: 3 µM
- TGI [22]: > 100 µM
- Activity (Candida albicans [13]): inactive

Molecule: C=CCSc1nc2ccc(NC/C=C/c3ccccc3)cc2c(=O)n1Cc1ccccc1
- MIC (Escherichia coli [1]): 8 µg/mL (≈ 18.2 µM)
- MIC (Bacillus subtilis [2]): 4 µg/mL (≈ 9.1 µM)
- IC50 (Dihydrofolate reductase [3]): 3 µM
- MIC (Staphylococcus aureus [4]): 8 µg/mL (≈ 18.2 µM)
- zone of inhibition at 200 µg/disc (Micrococcus luteus [5]): 16 mm
- Activity (Candida albicans [6]): inactive
- MIC (Micrococcus luteus [7]): 16 µg/mL (≈ 36.4 µM)
- IC50 (Dihydrofolate reductase [8]): 5 µM
- zone of inhibition at 200 µg/disc (Bacillus subtilis [9]): 20 mm
- zone of inhibition at 200 µg/disc (Staphylococcus aureus [10]): 19 mm
- zone of inhibition at 200 µg/disc (Escherichia coli [11]): 18 mm
- diameter of the inhibition zone (DIZ) (Pseudomonas aeruginosa [12]): inactive
- Activity (Candida albicans [13]): inactive

Molecule: Nc1ccc2ncn(Cc3ccccc3)c(=O)c2c1
- MIC (Escherichia coli [1]): 4 µg/mL (≈ 15.9 µM)
- MIC (Bacillus subtilis [2]): 2 µg/mL (≈ 7.96 µM)
- MIC (Staphylococcus aureus [4]): 2 µg/mL (≈ 7.96 µM)
- zone of inhibition at 200 µg/disc (Micrococcus luteus [5]): 20 mm
- Activity (Candida albicans [6]): inactive
- MIC (Micrococcus luteus [7]): 4 µg/mL (≈ 15.9 µM)
- IC50 (Dihydrofolate reductase [8]): 40 µM
- zone of inhibition at 200 µg/disc (Bacillus subtilis [9]): 28 mm
- zone of inhibition at 200 µg/disc (Staphylococcus aureus [10]): 24 mm
- zone of inhibition at 200 µg/disc (Escherichia coli [11]): 22 mm
- diameter of the inhibition zone (DIZ) (Pseudomonas aeruginosa [12]): inactive
- Activity (Candida albicans [13]): inactive

Molecule: GENTAMICIN
- inhibition zone (IZ) (Bacillus subtilis [9]): 19 mm
- inhibition zone (IZ) (Bacillus subtilis [24]): 19 mm
- inhibition zone (IZ) (Staphylococcus aureus [25]): 21 mm

Molecule: CC(=O)NS(=O)(=O)c1ccc(N)cc1 [SULFACETAMIDE]
- MIC (Bacillus subtilis [2]): 2 µg/mL (≈ 9.34 µM)
- IC50 (Dihydrofolate reductase [3]): 18 µM
- MIC (Staphylococcus aureus [4]): 1 µg/mL (≈ 4.67 µM)
- IC50 (Dihydrofolate reductase [8]): 22 µM
- zone of inhibition at 200 µg/disc (Bacillus subtilis [9]): 25 mm
- zone of inhibition at 100 µg/disc (Bacillus subtilis [24]; read-out: DIZ): 25 mm
- zone of inhibition at 100 µg/disc (Staphylococcus aureus [25]; read-out: DIZ): 28 mm

Molecule: O=c1[nH]cc(F)c(=O)[nH]1 [FLUOROURACIL]
- GI50 [14]: 15.1 µM
- TGI [14]: > 100 µM
- GI50 [15]: 45.6 µM
- TGI [15]: > 100 µM
- GI50 [16]: 70.6 µM
- TGI [16]: > 100 µM
- GI50 [17]: 22.7 µM
- TGI [17]: > 100 µM
- GI50 [18]: 61.4 µM
- TGI [18]: > 100 µM
- GI50 [19]: 8.4 µM
- TGI [19]: > 100 µM
- GI50 [20]: > 100 µM
- TGI [20]: > 100 µM
- GI50 [21]: 72.1 µM
- TGI [21]: > 100 µM
- GI50 [22]: 76.4 µM
- TGI [22]: > 100 µM
